Where two headings read alike, the source gives them in different places.
Legend:
[1] = test system: molybdenum-molybdopterin (Mo-MPT) center of nitrate reductase; conditions: for lowest nitrate concentration at which quenching of the emission signal is observed: FIG. 8
Description: Instead, the biosensor method of this invention uses fluorescence detection to sense nitrate 30 levels.
Once the Mo-MPT 10 is obtained, its initial fluorescence signal is measured.
The quenched fluorescence (Q) is a function of the maximum possible quenching at an infinite nitrate concentration (Qmax) and the affinity of nitrate for its binding site (Kd) in the vicinity of its binding site, or Mo-MPT 10. Thus, it follows Q=(Q max [nitrate])/(Kd+[nitrate]) where: • Q is the quenched fluorescence; • Qmax is maximal quenching at infinite concentration of nitrate; and • Kd is nitrate affinity for the binding site. Quenching can also be considered in terms of: F=Fo−Q where: • F is the fluorescence in the presence of nitrate; • Fo is the fluorescence in the absence of nitrate; and • Q is the quenched fluorescence.
The data was used to calculate Qmax and Kd based on the above equations.
(§1) To further investigate the quenching of Mo-MPT 10 by nitrate 30, a comparison study was performed comparing quenching of Mo-MPT 10 versus FAD 14 by nitrate 30. […] The data line labeled 38 represents quenching of FAD 14, while the data line labeled 40 represents quenching of Mo-MPT 10.

FAD = conditions: 0 to 20 ppm nitrate; FIG. 10, data line 38
Description: as §1

nitrate reductase = conditions: read-out: Michaelis constant (Km) of nitrate reduction; nitrate concentration at which the reaction is half maximal; cited from earlier work

Structure (SMILES): O=[N+]([O-])O [nitrate]
- type of fluorescence quenching of Mo-MPT by nitrate ([1]; 0 to 4 ppm nitrate, FIG. 10, data line 40): static quenching
- Qmax (maximal quenching at infinite concentration of nitrate) ([1]; fluorescence at 440 nm, FIG. 9, exceeds unity, believed to be an experimental artifact): 1.07
- lowest nitrate concentration at which quenching of the emission signal is observed ([1]; nitrate added at 0.3 ppm to 3.4 ppm): 0.3 ppm
- Kd ([1]; read-out: Kd (nitrate affinity for the binding site, Mo-MPT), fluorescence at 440 nm, fit of Q=(Qmax[nitrate])/(Kd+[nitrate]), FIG. 9): 20 µM
- lowest nitrate concentration at which quenching of the emission signal is observed ([1]; same as 0.3 ppm): 23 µmol
- type of fluorescence quenching of FAD by nitrate / interaction (FAD): no specific interaction
- Km (nitrate reductase): 13 µM
